Experimental data published in ChEMBL document CHEMBL5154681, “Small Amphiphilic Peptides: Activity Against a Broad Range of Drug-Resistant Bacteria and Structural Insight into Membranolytic Properties” (J Med Chem, 2022).
≈ marks a conversion by molar mass, not a printed value. Square brackets hold non-standard residues; d marks the D form. Peptide text beside a SMILES is read from it. Dip = N[C@H](C(=O)O)C(c1ccccc1)c1ccccc1; 2Nal = N[C@@H](Cc1ccc2ccccc2c1)C(=O)O

How the values were obtained:
Staphylococcus aureus [1] = experiment: Bactericidal activity against methicillin resistant Staphylococcus aureus ATCC BAA-1556 assessed as reduction of bacterial growth at MIC by counting formed colonies; type: functional, organism-based; conditions: time <= 4.0 hrs, TDE = time-dependent effect
Staphylococcus aureus [2] = experiment: Antibacterial activity against methicillin resistant Staphylococcus aureus ATCC BAA-1556 after 24 hrs in presence of 2 mM of CaCl2 by microtiter plate method; type: functional
Staphylococcus aureus [3] = experiment: Antibacterial activity against methicillin resistant Staphylococcus aureus ATCC BAA-1556 incubated for 24 hrs by microtiter plate method; type: functional; conditions: Staphylococcus aureus, ATCC BAA-1556, 24 h, read-out: MIC
[4] = Cytotoxicity against human MRC-5 assessed as cell viability at 150 ug/ml incubated for 24 hrs by microplate spectrophotometer analysis method relative to control; type: toxicity, cell-based, MRC5; conditions: MRC-5 cells, at 150 µg/mL, read-out: Activity
Lipid bilayer [5] = experiment: Membrano-lytic effect in bacterial inner membrane mimic DOPC/DOPG (7:3) large unilamellar vesicles assessed as calcein leakage measured at 5 microg/ml, incubated for 30 mins by multimode microplate reader assay; type: cell membranes; conditions: dose 5.0 µg/ml
Escherichia coli [6] = experiment: Antibacterial activity against Escherichia coli ATCC 25922 after 24 hrs in presence of 1 mM of MgCl2 at by microtiter plate method; type: functional
Lipid bilayer [7] = experiment: Membrano-lytic effect in bacterial inner membrane mimic DOPC/DOPG (7:3) large unilamellar vesicles assessed as calcein leakage measured upto 100 mins for every 10 mins by multimode microplate reader assay; type: cell membranes; conditions: dose 5-50 µg/ml, DDE = dose-dependent effect
[8] = Selectivity ratio of MIC for antibacterial activity against Pseudomonas aeruginosa ATCC 10145 to MIC for antibacterial activity against imipenem-resistant Pseudomonas aeruginosa ATCC BAA-1744; type: functional
Lipid bilayer [9] = experiment: Membrano-lytic effect in bacterial inner membrane mimic DOPC/DOPG (7:3) large unilamellar vesicles assessed as calcein leakage measured at 50 microg/ml, incubated for 50 mins by multimode microplate reader assay; type: cell membranes; conditions: dose 50.0 µg/ml
Klebsiella pneumoniae = experiment: Antibacterial activity against carbapenem-resistant Klebsiella pneumoniae ATCC BAA-2470 incubated for 24 hrs by microtiter plate method; type: functional
Pseudomonas aeruginosa [10] = experiment: Antibacterial activity against Pseudomonas aeruginosa ATCC 27883 incubated for 24 hrs by microtiter plate method; type: functional; conditions: Pseudomonas aeruginosa, ATCC 27883, read-out: MIC
Staphylococcus aureus [11] = experiment: Antibacterial activity against methicillin resistant Staphylococcus aureus ATCC BAA-1556 after 24 hrs in presence of 150 mM of NaCl by microtiter plate method; type: functional
Staphylococcus aureus [12] = experiment: Antibacterial activity against methicillin resistant Staphylococcus aureus ATCC BAA-1556 after 24 hrs in presence of 4.5 mM of KCl by microtiter plate method; type: functional
Escherichia coli [13] = experiment: Antibacterial activity against Escherichia coli ATCC 25922 after 24 hrs in presence of 4.5 mM of KCl at by microtiter plate method; type: functional
Pseudomonas aeruginosa [14] = experiment: Antibacterial activity against Pseudomonas aeruginosa ATCC 10145 incubated for 24 hrs by microtiter plate method; type: functional
Enterococcus faecium = experiment: Antibacterial activity against Enterococcus faecium ATCC 27270 incubated for 24 hrs by microtiter plate method; type: functional
Staphylococcus aureus [15] = experiment: Antibacterial activity against Staphylococcus aureus ATCC 29213 incubated for 24 hrs by microtiter plate method; type: functional; conditions: Staphylococcus aureus, ATCC 29213, read-out: MIC
[16] = Selectivity ratio of MIC for antibacterial activity against Klebsiella pneumoniae ATCC 13883 to MIC for antibacterial activity against carbapenem-resistant Klebsiella pneumoniae ATCC BAA-2470; type: functional
Escherichia coli [17] = experiment: Antibacterial activity against Escherichia coli ATCC 25922 incubated for 24 hrs by microtiter plate method; type: functional; conditions: Escherichia coli
HepaRG = experiment: Cytotoxicity against human HPRGC10 assessed as cell viability at 50 ug/ml incubated for 24 hrs by microplate spectrophotometer analysis method relative to control; type: functional; conditions: read-out: Activity
Enterococcus faecalis = experiment: Potency index, ratio of daptomycin MIC to test compound MIC for antibacterial activity against vancomycin resistant Enterococcus faecalis ATCC 51575; type: functional
Cell membrane = experiment: Membrano-lytic effect in cytoplasmic membrane of Escherichia coli ATCC BAA-2452 assessed as disruption by measuring propidium iodide fluorescence incubated for 1 hr by FACscan flow cytometer analysis; conditions: DDE = dose-dependent effect
Streptococcus pneumoniae = experiment: Antibacterial activity against multidrug resistant […] ATCC 700677 incubated for 24 hrs by microtiter plate method; type: functional
Lipid bilayer [18] = experiment: Membrano-lytic effect in bacterial inner membrane mimic DOPC/DOPG (7:3) large unilamellar vesicles assessed as calcein leakage measured at 50 microg/ml, incubated for 40 mins by multimode microplate reader assay; type: cell membranes; conditions: dose 50.0 µg/ml

Row | Structure (SMILES) | Activity (Staphylococcus aureus [1]) | MIC (Staphylococcus aureus [2]) | MIC (Staphylococcus aureus [3]) | viability at 24 h, 150 ug/ml [4] | Activity (Lipid bilayer [5]) | MIC (Escherichia coli [6]) | Activity (Lipid bilayer [7]) | Ratio [8] | MIC (Klebsiella pneumoniae) | MIC (Pseudomonas aeruginosa [10]) | MIC (Staphylococcus aureus [11]) | MIC (Staphylococcus aureus [12]) | MIC (Escherichia coli [13]) | MIC (Pseudomonas aeruginosa [14]) | MIC (Enterococcus faecium) | MIC (Staphylococcus aureus [15]) | Ratio [16] | viability at 50 µg/mL (HepaRG) | Ratio (Enterococcus faecalis) | Activity (Cell membrane) | further results
1 | N=C(N)NCCC[C@@H]1NC(=O)[C@H](CCCNC(=N)N)NC(=O)[C@H](CCCNC(=N)N)NC(=O)[C@H](C(c2ccccc2)c2ccccc2)NC(=O)[C@H](C(c2ccccc2)c2ccccc2)NC(=O)[C@H](C(c2ccccc2)c2ccccc2)NC(=O)[C@H](CCCNC(=N)N)NC1=O (cyclo(RRRR[Dip][Dip][Dip])) | Tde | 3.1 µg/mL | 3.1 µg/mL (≈ 2.39 µM) | 36% | 30% | 12.5 µg/mL | Dde | 2 | 12.5 µg/mL (≈ 9.66 µM) | 12.5 µg/mL (≈ 9.66 µM) | 3.1 µg/mL | 3.1 µg/mL | 12.5 µg/mL | 25 µg/mL (≈ 19.3 µM) | 3.1 µg/mL (≈ 2.39 µM) | 3.1 µg/mL (≈ 2.39 µM) | 2 | 93% | 2 | Dde | Activity (Lipid bilayer [9]): 100%; MIC (Escherichia coli [17]; ATCC 25922, read-out: MIC): 12.5 µg/mL (≈ 9.66 µM); MIC (Streptococcus pneumoniae): 25 µg/mL (≈ 19.3 µM)
2 | N=C(N)NCCC[C@@H]1NC(=O)[C@H](CCCNC(=N)N)NC(=O)[C@H](CCCNC(=N)N)NC(=O)[C@H](Cc2ccc3ccccc3c2)NC(=O)[C@H](Cc2ccc3ccccc3c2)NC(=O)[C@H](Cc2ccc3ccccc3c2)NC(=O)[C@H](CCCNC(=N)N)NC1=O (cyclo(RRRR[2Nal][2Nal][2Nal])) | Tde | 3.1 µg/mL | 3.1 µg/mL (≈ 2.55 µM) | 36% | 30% | 25 µg/mL | Dde | 2 | 12.5 µg/mL (≈ 10.3 µM) | 12.5 µg/mL (≈ 10.3 µM) | 3.1 µg/mL | 3.1 µg/mL | 25 µg/mL | 25 µg/mL (≈ 20.6 µM) | 3.1 µg/mL (≈ 2.55 µM) | 3.1 µg/mL (≈ 2.55 µM) | 2 | 93% | 2 | Dde | Activity (Lipid bilayer [18]): 100%; MIC (Escherichia coli [17]; ATCC 25922, 24 h, read-out: MIC): 25 µg/mL (≈ 20.6 µM); MIC (Streptococcus pneumoniae): 12.5 µg/mL (≈ 10.3 µM)
